Where two headings read alike, the source gives them in different places.
Experiments:
EK-2703 (BAR Lp 2703) = type: in vivo, Lolium perenne; details: Average June/July 1998, 9=completely green
Protocol: The mean turf color rating for the BAR LP 2703 variety in this perennial ryegrass turf trial that was seeded in the spring of 1998 (at 16 kg/ha) in Wolfheze was 7.6 in June/July 1998 (9=completely green).

BAR Lp 2703 = type: in vivo, Lolium perenne; details: 40 days after first application, scale 1-9, 9=perfect turf
Excerpt: (§1) This example provides methods and results of field trials in which the glyphosate tolerance characteristics of BAR Lp 2703 were examined and compared with Peak perennial ryegrass in Florence, S.C.
(§2) Peak and LP2703 perennial ryegrasses were overseeded at 350 lb/acre on dormant Bermuda grass base on Oct. 7, 2003. Turf quality was rated 7 times between Nov. 10, 2003 and Mar. 2, 2004. Turf quality fluctuated between 6.0 and 7.5 with changes in weather and fertilization (rated on a scale of 1-9 with 1=bare soil and 9=perfect turf).
(§3) Experimental treatments were 0, 3, 5, 6, 8, 10, and 16 ounces Roundup PROS per acre. One application of each treatment was applied on Mar. 12, 2004 to plots 3 feet wide by 6 feet long. The 3 and 6 oz/acre treatments were applied a second time on Mar. 28, 2004. There were two replications of each treatment applied to each cultivar. Applications were made in 2 gallons of water per 1000 square feet with a CO2-charged backpack sprayer.
(§4) Turf damage was rated on a scale of 0-9 with 0=no damage and 9=complete damage 7, 14, and 21 days after the first spray. Damage was not evident prior to 7 days.
(§5) The ratings shown in Table 10 were obtained 40 days after the first application of glyphosate (24 days after 2nd application).

Peak = test: Field trial Florence, S.C.: glyphosate tolerance, turf damage and turf quality; type: in vivo, perennial ryegrass; details: 40 days after first application, scale 1-9, 9=perfect turf
Excerpt: as §1, §2, §3, §4, §5

O=C(O)CNCP(=O)(O)O [Glyphosate, N-(phosphonomethyl) glycine]
Turf Color After Spraying (EK-2703 (BAR Lp 2703)): 7.6
Turf quality ratings (BAR Lp 2703; 3 oz/acre twice): 6.4
Turf quality ratings (BAR Lp 2703; 5 oz/acre): 7.3
Turf quality ratings (BAR Lp 2703; 6 oz/acre twice): 5.8
Turf quality ratings (BAR Lp 2703; 8 oz/acre): 7.8
Turf quality ratings (BAR Lp 2703; 10 oz/acre): 8.0
Turf quality ratings (BAR Lp 2703; 16 oz/acre): 6.5
Turf quality ratings (Peak; 3 oz/acre twice): 5.4
Turf quality ratings (Peak; 5 oz/acre): 6.8
Turf quality ratings (Peak; 6 oz/acre twice): 2.5
Turf quality ratings (Peak; 8 oz/acre): 7.7
Turf quality ratings (Peak; 10 oz/acre): 7.0
Turf quality ratings (Peak; 16 oz/acre): 5.9

Source: US7465857B1, “Glyphosate tolerant perennial ryegrass” (priority 2004, dated 2008)
